Consider one substance from patent US12022844B2, “Nutritional composition, food/drink composition using nutritional composition, and modified milk powder using nutritional composition” (priority 2018, dated 2024).

The test system of test [1] is Lactobacillus gasseri ATCC33323. Put plainly: Single bacterial culturing with HMO as sugar source, OD650. It is filed as cell-based. To be noted: ATCC 33323^T, sugar source 2%, 8 h, Table 6. The procedure:
(§1) A10% solution of glucose (manufactured by Nakarai Tesque Inc.), and 2′-FL ((≥95%) Funakoshi, available from sigma), and LNnT (manufactured by ELICITYL) as examples of HMOs was prepared with ion exchanged water, and was subjected to sterile filtration using Millex-GV (SLGV033RS).
Lactobacilli MRS Broth (BD) (0.05% L-Cysteine Hydrochloride for Bacteria of the genus Bifidobacterium) was added to strains of Table 1 below (bacteria belonging to Bifidobacterium bifidum) and Table 2 below. After a sterilization treatment, 3% of the bacterial solution was inoculated, and anaerobically cultured (pre-pre cultured) at 37° C. for 16 h.
The following day, 1% glucose was added to a modified BL agar medium (“Studies on Bifidobacteria” by Tomotari Mitsuoka, p. 306, Japan Bifidus Foundation, issued in 1994) noted in Table 3, for preparation. After a sterilization treatment, 3% of the pre-pre cultured bacterial solution was inoculated, and anaerobically pre-cultured (pre-cultured) at 37° C. for 12 h.
The pre-cultured bacterial solution was collected and washed once with a sterile physiological saline solution. Then, mass-up was performed to an equal volume with the modified BL agar medium (“Studies on Bifidobacteria” by Tomotari Mitsuoka, p. 306, Japan Bifidus Foundation, issued in 1994) noted in Table 3 to prepare a suspended bacterial solution.
The modified BL agar medium (“Studies on Bifidobacteria” by Tomotari Mitsuoka, p. 306, Japan Bifidus Foundation, issued in 1994) noted in Table 3 was prepared at a capacity of 60%, and was subjected to an autoclave sterilization treatment. Then, 40% of each sugar solution prepared in (1) was aseptically added so as to prepare a medium with a sugar concentration of 4%.
The medium prepared in the above (3) was dispensed at a capacity that is half the capacity for culturing in a 96-well plate, and the bacterial solution prepared in the above (2) was dispensed at a remaining half capacity such that the bacterial solution had 6%. Then, a final sugar concentration was set to 2%. The plate into which the bacterial solution was dispensed was anaerobically cultured at 37° C. for 8 h.
OD650 was measured from each well in the plates in the above (4) and the above (5) before (0 h) culturing and after (8 h) culturing, by MICROPLATE READER SH-9000 (manufactured by CORONA ELECTRIC). After turbidity measurement, microbial cells were collected, and DNA extraction was performed. After the DNA extraction, the number of proliferating bacteria of Bifidobacteria/lactobacilli was analyzed by using the bacterial species-specific primer noted in Table 4, by a quantitative PCR method (see “Structural analysis of intestinal flora”—analysis of bacterial flora in human feces using quantitative PCR—by Kouichi Watanabe, Enterobacteriological journal, 20:35-42, 2006).
Regarding strains in Table 2, each strain was cultured as a single bacterium by 2′-FL or LNnT (HMOs) as a sugar source, and OD650 was measured. The results for 2′-FL are noted in Table 6 below, and the results for LNnT are noted in Table 7 below.

Test [2] concerns Lactobacillus acidophhilus ATCC4356. Described as above. The test is classed as cell-based, Lactobacillus acidophilus. To be noted: ATCC 4356^T, sugar source 2%, 8 h, Table 6. Here is the method:
as §1
Lactobacilli MRS Broth (BD) (0.05% L-Cysteine Hydrochloride for Bacteria of the genus Bifidobacterium) was added to strains of Table 1 below (bacteria belonging to Bifidobacterium bifidum) and Table 2 below. After a sterilization treatment, 3% of the bacterial solution was inoculated, and anaerobically cultured (pre-pre cultured) at 37° C. for 16 h. […]
OD650 was measured from each well in the plates in the above (4) and the above (5) before (0 h) culturing and after (8 h) culturing, by MICROPLATE READER SH-9000 (manufactured by CORONA ELECTRIC). […] After the DNA extraction, the number of proliferating bacteria of Bifidobacteria/lactobacilli was analyzed by using the bacterial species-specific primer noted in Table 4, by a quantitative PCR method (see “Structural analysis of intestinal flora”—analysis of bacterial flora in human feces using quantitative PCR—by Kouichi Watanabe, Enterobacteriological journal, 20:35-42, 2006).
Regarding strains in Table 2, each strain was cultured as a single bacterium by 2′-FL or LNnT (HMOs) as a sugar source, and OD650 was measured. […]

2′-fucosyllactose [2′-FL]: the “OD650 increase value” in test [1] was −0.017; in test [2], 0.01.
